# Results: patent US20220275461A1, “DIAGNOSTICS AND METHODS FOR PROGNOSING RESPONSE TO IMMUNOTHERAPY BASED ON THE METHYLATION STATUS OF IMMUNE SYNAPSE GENE SIGNATURE” (H. LEE MOFFITT CANCER CENTER AND RESEARCH INSTITUTE, INC., priority 2019, published 2022)
# Assays:
# [1] = system: epithelial cancer cell lines; assay: PC1 scores of mock- or 5-azacitidine-treated cancer cell lines (GSE57342 dataset); type: cell-based; conditions: 26 epithelial cancer cell lines, mock- vs 5-azacitidine-treated; FIG. 18E
# Description: The GSE57342 processed dataset was downloaded and cell lines with more than three Mock- and three 5-azacitidine-treated samples was selected for analysis.
# We used the first and second principal component (a weighted average β-values among the CSG and ICG probes), as they account for the largest variability in the data, to represent the overall methylation status for 8,931 tumor and normal samples in the TCGA database. That is, PC=Σwixi, a weighted average β-values among the selected CSG and ICG probes, where xi represents gene i β-value, wi is the corresponding weight (loading coefficient) with Σwi^2=1, and the wi values maximize the variance of Σwixi. For each gene, a set of probes were selected using the following criteria to minimize noise, r<−0.2 (methylation vs gene expression) located in the TSS1500, TSS200 or the 5′UTR (Table 4). Each probe was centered but not scaled before PCA calculations.
# [2] = system: CD40 gene in CAMA1 cell line; conditions: mock- vs azacytidine-treated, FIG. 18F; cited from earlier work
structure (smiles),measurement,setting,value
Nc1ncn([C@@H]2O[C@H](CO)[C@@H](O)[C@H]2O)c(=O)n1 [5-azacytidine],PC1 score (hypermethylation of CSGs),[1],significant decrease in PC1 scores
same,methylation status of CD40 gene,[2],demethylation of CD40
